Reference: patent US20100021885A1, “REAGENT SETS AND GENE SIGNATURES FOR NON-GENOTOXIC HEPATOCARCINOGENICITY” (priority 2006, published 2010)
Where two headings read alike, the source gives them in different places.

Assays:
liver of rats = details: cited from earlier work
[1] = tested on: livers from treated male Sprague-Dawley rats
Description: Briefly, in vivo short-term repeat dose rat studies were conducted on over 580 test compounds, including marketed and withdrawn drugs, environmental and industrial toxicants, and standard biochemical reagents. Rats (three per group) were dosed daily at either a low or high dose. […] Animals were necropsied on days 0.25, 1, 3, and 5 or 7. Up to 13 tissues (e.g., liver, kidney, heart, bone marrow, blood, spleen, brain, intestine, glandular and nonglandular stomach, lung, muscle, and gonads) were collected for histopathological evaluation and microarray expression profiling on the Amersham CodeLink™ RU1 platform (also referred to herein as “CodeLink Uniset™ Rat 1 Bioarray”). In addition, a clinical pathology panel consisting of 37 clinical chemistry and hematology parameters was generated from blood samples collected on days 3 and 5.
The remaining 21 NGTC chemicals and 26 NC chemicals were reserved for independent validation of the signature. Each chemical was evaluated in a short term repeat dose in vivo study in male Sprague-Dawley rats (n=3/group). The livers from treated and control rats were collected after 1, 3 and 5 days of dosing and RNA was extracted for gene expression profiling. Gene expression changes in treated animals were compared to suitably matched controls and represented as average log10 ratios for each treatment group. Since the development of tumors is a long term multi-step process, the 100 training set chemicals were profiled at the latest time point in order to capture gene expression changes that were likely to be reflective of repeat dose treatment effects that contribute to carcinogenicity and not reflective of an initial stimulus following a single dose that may be transient in nature.
Male Sprague-Dawley (Crl:CD®(SD)(IGS)BR) rats (weight matched, 7 to 8 weeks of age and averaging 200 to 250 g) were purchased from Charles River Laboratories (Portage, Mich.) and housed individually in hanging, stainless steel, wire-bottom cages in a temperature (66-77° F.), light (12-hour dark/light cycle) and humidity (30-70%) controlled room. […] Housing and treatment of the animals were in accordance with regulations outlined in the USDA Animal Welfare Act (9 CFR Parts 1, 2 and 3). Animals were assigned to groups such that mean body weights were within 10% of the mean vehicle control group. Test articles were administered either orally (10 ml of corn oil/kg body weight) or by intra-peritoneal injection (5 ml of saline/kg body weight), as indicated. Animals were dosed once daily starting on day 0, and necropsied 24 hrs after the last dose, as indicated. An equivalent number of time- and vehicle-matched control rats were treated concurrently.
Briefly, liver samples from 3 rats were chosen from each treatment and control group for gene expression analysis on the Codelink Uniset™ Rat 1 Bioarray (GE Healthcare Bio-Sciences Corp., Piscataway, N.J.). A complete list of probes on the array is provided on the Amersham Biosciences web site (www.amershambiosciences.com). Log transformed signal data for all probes were array-wise normalized used Array Qualifier (Novation Biosciences, Palo Alto, Calif.), a non-linear centralization normalization procedure adapted for the CodeLink microarray platform. Log10 ratios for each experimental group are computed as the difference between the average of the logs of the normalized experimental signals and the average of the logs of the normalized control signals for each gene.
where S is the scalar product and b is the bias term. Evaluation of S for a test experiment across the n genes in the signature determines what side of the hyperplane in m dimensional space the test experiment lies, and thus the result of the classification. Experiments with scalar products greater than 0 are considered positive for non-genotoxic hepatocarcinogenicity.

[2] = literature-curated: induction of neoplastic lesions in the liver of rats, two year rodent bioassay results and/or class effect information
[3] = maximum of days 1, 3, 5, greater than zero = classified non-genotoxic hepatocarcinogen
[4] = test chemicals, literature class NGTC or NC
[5] = male, Sprague-Dawley, rat, in vivo

C#C[C@]1(O)CC[C@H]2[C@@H]3CCc4cc(O)ccc4[C@H]3CC[C@@]21C [ETHINYLESTRADIOL]
Class (liver of rats; [2]): NGTC

O=c1cc(-c2ccccc2)oc2ccc3ccccc3c12 [BETA-NAPHTHOFLAVONE]
Max (maximum scalar product observed over the multiple time points) [1, 3]: 0.81
Class (liver of rats; [4]): NGTC

C=CCc1ccc2c(c1)OCO2 [SAFROLE]
Class (liver of rats; rat, in vivo): NGTC

CC(=O)[C@H]1CC[C@H]2[C@@H]3CCC4=CC(=O)CC[C@]4(C)[C@H]3CC[C@]12C [PROGESTERONE]
Class (liver of rats; [2]): NGTC

CC(C)(C)CC(C)(C)c1ccc(OCCOCC[N+](C)(C)Cc2ccccc2)cc1 [BENZETHONIUM CHLORIDE]
Day 1 (scalar product) ([1]; male, rat, in vivo): −0.13
Day 3 (scalar product) ([1]; male, rat, in vivo): −1.34
Day 5 (scalar product) ([1]; male, rat, in vivo): −1.68
Max (maximum scalar product observed over the multiple time points) ([1]; male, rat, in vivo): −0.13

CN(C)CCCC1(c2ccc(F)cc2)OCc2cc(C#N)ccc21 (stereo not shown) [CITALOPRAM]
Max (maximum scalar product observed over the multiple time points) [1, 5]: −0.28

aflatoxin B1
Class (liver of rats; rat, in vivo): GTC

C[C@]12CC[C@@H]3c4ccc(OC(=O)c5ccccc5)cc4CC[C@H]3[C@@H]1CC[C@@H]2O [BETA-ESTRADIOL 3-BENZOATE]
Day 1 (scalar product) ([1]; Female, 37 gene signature, day 1): 0.81
Day 3 (scalar product) ([1]; Female, 37 gene signature, day 3): 0.25
Day 5 (scalar product) ([1]; Female, 37 gene signature, day 5): 0.03
Max (maximum scalar product) ([1]; Female, maximum of days 1, 3, 5): 0.81

Cc1ccc(C)c(OCCCC(C)(C)C(=O)O)c1 [GEMFIBROZIL]
Class (liver of rats; [2]): NGTC

Clc1ccc2c(c1)C(N1CCNCC1)=Nc1ccccc1O2 [AMOXAPINE]
Max (maximum scalar product observed over the multiple time points) [1, 5]: −1.00

CN(C)[C@@H]1C(O)=C(C(N)=O)C(=O)[C@@]2(O)C(O)=C3C(=O)c4c(O)cccc4[C@@](C)(O)[C@H]3C[C@@H]12 [TETRACYCLINE]
Day 1 (scalar product) ([1]; male, rat, in vivo): −0.40
Day 3 (scalar product) ([1]; male, rat, in vivo): −1.18
Day 5 (scalar product) ([1]; male, rat, in vivo): −1.31
Max (maximum scalar product observed over the multiple time points) ([1]; male, rat, in vivo): −0.40

CC[C@]1(O)CC[C@H]2[C@@H]3CCC4=CCCC[C@@H]4[C@H]3CC[C@@]21C [ETHYLESTRENOL]
Max (maximum scalar product observed over the multiple time points) [1, 3]: 2.25
Class (liver of rats; [4]): NGTC

CN1C(=O)CN=C(c2ccccc2)c2cc(Cl)ccc21 [DIAZEPAM]
Day 1 (scalar product) ([1]; male, rat, in vivo): −1.40
Day 3 (scalar product) ([1]; male, rat, in vivo): −0.06
Day 5 (scalar product) ([1]; male, rat, in vivo): 0.52
Max (maximum scalar product observed over the multiple time points) ([1]; male, rat, in vivo): 0.52

CCOC(=O)C(C)(C)Oc1ccc(Cl)cc1 [CLOFIBRATE]
Class (liver of rats; [2]): NGTC

c1ccc2c(c1)Nc1ccccc1S2 [PHENOTHIAZINE]
Max (maximum scalar product observed over the multiple time points) [1, 3]: 0.70

CC[C@H]1OC(=O)[C@H](C)[C@@H](O[C@H]2C[C@@](C)(OC)[C@@H](O)[C@H](C)O2)[C@H](C)[C@@H](O[C@@H]2O[C@H](C)C[C@H](N(C)C)[C@H]2O)[C@](C)(O)C[C@@H](C)C(=O)[C@H](C)[C@@H](O)[C@]1(C)O [ERYTHROMYCIN]
Max (maximum scalar product observed over the multiple time points) [1, 5]: −1.18

NC(=O)N1c2ccccc2C=Cc2ccccc21 [CARBAMAZEPINE]
Max (maximum scalar product observed over the multiple time points) [1, 5]: −0.35
Class (liver of rats; [4]): NGTC

Nc1ccn([C@@H]2O[C@H](CO)[C@@H](O)[C@@H]2O)c(=O)n1 [CYTARABINE]
Max (maximum scalar product observed over the multiple time points) [1, 5]: −0.71

C[C@]12C/C(=C/O)C(=O)C[C@@H]1CC[C@@H]1[C@@H]2CC[C@@]2(C)[C@H]1CC[C@]2(C)O [OXYMETHOLONE]
Max (maximum scalar product observed over the multiple time points) [1, 3]: −0.36

CC(C)OC(=O)C(C)(C)Oc1ccc(C(=O)c2ccc(Cl)cc2)cc1 [FENOFIBRATE]
Class (liver of rats; [2]): NGTC

CC(=O)S[C@@H]1CC2=CC(=O)CC[C@]2(C)[C@H]2CC[C@@]3(C)[C@@H](CC[C@@]34CCC(=O)O4)[C@H]12 [SPIRONOLACTONE]
Max (maximum scalar product observed over the multiple time points) [1, 5]: 0.37
Class (liver of rats; [4]): NGTC

COc1ccc(C(CN(C)C)C2(O)CCCCC2)cc1 (stereo not shown) [VENLAFAXINE]
Max (maximum scalar product observed over the multiple time points) [1, 3]: −0.95

Clc1cc2c(cc1Cl)Oc1cc(Cl)c(Cl)cc1O2 [2,3,7,8-TETRACHLORODIBENZO-P-DIOXIN]
Class (liver of rats; [2]): NGTC

CC(=N)S [THIOACETAMIDE]
Class (liver of rats; [2]): NGTC

CC(C)(Oc1ccc(Cl)cc1)C(=O)O [CLOFIBRIC ACID]
Max (maximum scalar product observed over the multiple time points) [1, 5]: 0.86

CC(C)(Oc1ccc(C2CCCc3ccccc32)cc1)C(=O)O (stereo not shown) [NAFENOPIN]
Class (liver of rats; [2]): NGTC

C=C1CC[C@H](O)C/C1=C/C=C1\CCC[C@]2(C)[C@@H]([C@H](C)CCCC(C)C)CC[C@@H]12 [CHOLECALCIFEROL]
Max (maximum scalar product observed over the multiple time points) [1, 3]: −1.38

CCO [ETHANOL]
Class (liver of rats; [2]): NGTC

C[C@]12CCC(=O)C=C1CC[C@@H]1[C@@H]2CC[C@@]2(C)[C@H]1CC[C@]2(C)O [17-METHYLTESTOSTERONE]
Class (liver of rats; [2]): NGTC

CC(NC(C)(C)C)C(=O)c1cccc(Cl)c1 (stereo not shown) [BUPROPION]
Class (liver of rats; [2]): NGTC

C=C(Cl)Cl [1,1-dichloroethene, reference compound]
signature prediction for non-genotoxic hepatocarcinogenicity ([1]; 37 gene signature, maximum scalar product over days 1, 3 and 5, scalar product greater than zero = positive): negative
Max (maximum scalar product observed over the multiple time points) [1, 3]: −0.80

CC(C)=CCC/C(C)=C/CO [GERANIOL]
Max (maximum scalar product observed over the multiple time points) [1, 3]: −0.30

Cc1ccnc2c1NC(=O)c1cccnc1N2C1CC1 [NEVIRAPINE]
Max (maximum scalar product observed over the multiple time points) [1, 5]: −0.38

CC(C)(C)NC(=O)[C@H]1CC[C@H]2[C@@H]3CC[C@H]4NC(=O)C=C[C@]4(C)[C@H]3CC[C@]12C [FINASTERIDE]
Max (maximum scalar product observed over the multiple time points) [1, 5]: 0.22

CCN(CC)CCOc1ccc(C(=C(Cl)c2ccccc2)c2ccccc2)cc1 [CLOMIPHENE]
Max (maximum scalar product observed over the multiple time points) [1, 5]: −1.71

Cc1cccc(C)c1NC(=O)C(C)N (stereo not shown) [TOCAINIDE]
Max (maximum scalar product observed over the multiple time points) [1, 5]: −0.91

C[C@]12CC[C@@H]3c4ccc(O)cc4CC[C@H]3[C@@H]1C[C@@H](O)[C@@H]2O [ESTRIOL]
Class (liver of rats; rat, in vivo): NGTC

CN(C)CCCN1c2ccccc2CCc2ccc(Cl)cc21 [CLOMIPRAMINE]
Max (maximum scalar product observed over the multiple time points) [1, 5]: −1.46

CC(C)c1c(C(=O)Nc2ccccc2)c(-c2ccccc2)c(-c2ccc(F)cc2)n1CC[C@@H](O)C[C@@H](O)CC(=O)O [ATORVASTATIN]
Max (maximum scalar product observed over the multiple time points) [1, 5]: 1.85

CC[C@H](C)C(=O)O[C@H]1C[C@H](O)C=C2C=C[C@H](C)[C@H](CC[C@@H](O)C[C@@H](O)CC(=O)O)[C@H]21 [PRAVASTATIN]
Class (liver of rats; [2]): NGTC

OCCOCCN1CCN(C2=Nc3ccccc3Sc3ccccc32)CC1 [QUETIAPINE]
Max (maximum scalar product observed over the multiple time points) [1, 5]: −0.42

CCOC(=O)n1ccn(C)c1=S [CARBIMAZOLE]
Max (maximum scalar product observed over the multiple time points) [1, 5]: −0.38

O=C1Nc2ccc(Cl)cc2C(c2ccccc2Cl)=NC1O (stereo not shown) [LORAZEPAM]
Max (maximum scalar product observed over the multiple time points) [1, 3]: 0.10

CN(C)CCN(Cc1cccs1)c1ccccn1
Class (liver of rats; [2]): NGTC

O=C(c1ccc(OCCN2CCCCC2)cc1)c1c(-c2ccc(O)cc2)sc2cc(O)ccc12 [RALOXIFENE, reference compound]
Max (maximum scalar product) ([1]; female, Sprague-Dawley, rat, in vivo): −0.66
Day 1 (scalar product) ([1]; female, Sprague-Dawley, rat, in vivo, 1 day): −0.66
Day 3 (scalar product) ([1]; female, Sprague-Dawley, rat, in vivo, 3 days): −1.25
Day 5 (scalar product) ([1]; female, Sprague-Dawley, rat, in vivo, 5 days): −2.11

CC(O)CO (stereo not shown) [propylene glycol, reference compound]
Max (maximum scalar product observed over the multiple time points) [1, 5]: −0.80
signature prediction for non-genotoxic hepatocarcinogenicity ([1]; rat, in vivo): negative

CCC1=C[C@@H]2CN(C1)Cc1c([nH]c3ccccc13)[C@@](C(=O)OC)(c1cc3c(cc1OC)N(C)[C@H]1[C@@](O)(C(=O)OC)[C@H](OC(C)=O)[C@]4(CC)C=CCN5CC[C@]31[C@@H]54)C2 [VINORELBINE]
Max (maximum scalar product observed over the multiple time points) [1, 5]: −1.37

CCCC(C)C1(CC)C(=O)NC(=O)NC1=O (stereo not shown) [PENTOBARBITAL]
Class (liver of rats; [2]): NGTC

Cc1cccc(Nc2cc(Cl)nc(SCC(=O)O)n2)c1C [PIRINIXIC ACID]
Class (liver of rats; [2]): NGTC
